# Measured values reported in publication PMC4413198, “Inhibition of N-Type Calcium Channels by Fluorophenoxyanilide Derivatives” (Marine Drugs, 2015).
# “And” between values parts separate entries of the source, which are not always exact repeats. Equal entries are not always repeated. Where two headings read alike, the source gives them in different places.
# Columns and labels:
# [1] = molecular target: T1, human Cav2.2 channels (Homo sapiens, UniProt Q00975); assay: SH-SY5Y neuroblastoma FLIPR assay of KCl-evoked calcium responses in presence of nifedipine; type: cell-based; settings: for extent of inhibition of KCl-induced Ca2+ responses: in words; for inhibition at 300 µM: SH-SY5Y, read-out: % Max inhibition
# T1 sequence (Q00975 whole entry): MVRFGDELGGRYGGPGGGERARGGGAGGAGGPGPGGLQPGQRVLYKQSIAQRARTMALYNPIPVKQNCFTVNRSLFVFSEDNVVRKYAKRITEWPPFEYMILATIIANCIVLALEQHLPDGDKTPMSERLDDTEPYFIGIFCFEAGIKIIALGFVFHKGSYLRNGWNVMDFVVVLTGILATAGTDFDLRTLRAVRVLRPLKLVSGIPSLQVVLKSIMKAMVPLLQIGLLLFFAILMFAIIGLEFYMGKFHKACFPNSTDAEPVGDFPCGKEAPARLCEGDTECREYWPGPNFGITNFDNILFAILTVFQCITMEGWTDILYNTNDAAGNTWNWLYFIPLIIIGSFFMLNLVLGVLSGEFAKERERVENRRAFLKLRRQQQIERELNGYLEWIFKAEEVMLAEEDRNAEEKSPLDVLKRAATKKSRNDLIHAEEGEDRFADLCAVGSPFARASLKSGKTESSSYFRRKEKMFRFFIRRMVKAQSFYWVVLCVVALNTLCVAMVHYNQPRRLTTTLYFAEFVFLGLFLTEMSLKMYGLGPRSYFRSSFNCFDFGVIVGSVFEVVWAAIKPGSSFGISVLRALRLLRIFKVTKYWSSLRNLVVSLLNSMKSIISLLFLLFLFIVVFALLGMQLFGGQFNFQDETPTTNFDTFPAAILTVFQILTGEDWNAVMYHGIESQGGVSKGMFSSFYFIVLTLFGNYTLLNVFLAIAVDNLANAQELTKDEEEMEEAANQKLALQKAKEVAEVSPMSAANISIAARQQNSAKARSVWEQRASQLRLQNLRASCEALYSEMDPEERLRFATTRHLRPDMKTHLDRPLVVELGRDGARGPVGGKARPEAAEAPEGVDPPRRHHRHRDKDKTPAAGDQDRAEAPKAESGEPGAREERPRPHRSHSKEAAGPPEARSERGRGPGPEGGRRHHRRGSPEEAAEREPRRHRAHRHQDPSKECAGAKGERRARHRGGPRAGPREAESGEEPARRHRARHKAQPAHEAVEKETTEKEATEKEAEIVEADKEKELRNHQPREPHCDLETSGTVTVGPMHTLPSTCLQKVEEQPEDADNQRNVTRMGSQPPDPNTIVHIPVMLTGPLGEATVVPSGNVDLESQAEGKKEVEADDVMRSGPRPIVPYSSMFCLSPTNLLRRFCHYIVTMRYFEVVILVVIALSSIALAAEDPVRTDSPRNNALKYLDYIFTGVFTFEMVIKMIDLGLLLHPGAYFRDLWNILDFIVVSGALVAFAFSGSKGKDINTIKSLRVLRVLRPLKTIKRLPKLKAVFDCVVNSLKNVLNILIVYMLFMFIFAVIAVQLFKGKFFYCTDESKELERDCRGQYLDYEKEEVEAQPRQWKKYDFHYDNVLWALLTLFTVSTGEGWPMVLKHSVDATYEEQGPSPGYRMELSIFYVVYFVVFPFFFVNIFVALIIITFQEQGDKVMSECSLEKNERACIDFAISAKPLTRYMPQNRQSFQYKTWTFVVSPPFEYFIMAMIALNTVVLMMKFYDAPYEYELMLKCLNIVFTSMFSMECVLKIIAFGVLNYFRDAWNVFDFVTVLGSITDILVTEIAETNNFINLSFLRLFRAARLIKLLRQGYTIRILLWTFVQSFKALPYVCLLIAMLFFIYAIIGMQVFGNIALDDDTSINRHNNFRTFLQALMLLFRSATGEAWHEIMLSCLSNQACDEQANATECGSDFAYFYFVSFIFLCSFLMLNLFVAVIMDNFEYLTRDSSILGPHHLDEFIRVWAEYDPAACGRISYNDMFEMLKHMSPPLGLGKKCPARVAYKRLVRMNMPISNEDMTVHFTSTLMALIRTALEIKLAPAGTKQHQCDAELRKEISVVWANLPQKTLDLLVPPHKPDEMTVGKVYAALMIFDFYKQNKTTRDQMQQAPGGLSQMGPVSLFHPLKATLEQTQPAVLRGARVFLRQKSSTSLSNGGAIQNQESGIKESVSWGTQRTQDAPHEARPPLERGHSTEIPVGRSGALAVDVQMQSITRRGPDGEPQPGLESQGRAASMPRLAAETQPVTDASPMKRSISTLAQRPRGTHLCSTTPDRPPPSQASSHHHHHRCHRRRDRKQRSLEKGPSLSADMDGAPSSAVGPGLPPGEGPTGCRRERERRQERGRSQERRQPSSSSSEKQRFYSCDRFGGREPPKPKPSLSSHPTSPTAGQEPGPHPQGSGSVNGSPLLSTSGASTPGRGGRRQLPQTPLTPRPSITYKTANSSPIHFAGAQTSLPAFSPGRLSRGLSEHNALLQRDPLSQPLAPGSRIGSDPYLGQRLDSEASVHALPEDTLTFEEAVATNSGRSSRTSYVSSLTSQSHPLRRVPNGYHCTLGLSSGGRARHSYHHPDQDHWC
# T1 sequence (P54284 whole entry partner): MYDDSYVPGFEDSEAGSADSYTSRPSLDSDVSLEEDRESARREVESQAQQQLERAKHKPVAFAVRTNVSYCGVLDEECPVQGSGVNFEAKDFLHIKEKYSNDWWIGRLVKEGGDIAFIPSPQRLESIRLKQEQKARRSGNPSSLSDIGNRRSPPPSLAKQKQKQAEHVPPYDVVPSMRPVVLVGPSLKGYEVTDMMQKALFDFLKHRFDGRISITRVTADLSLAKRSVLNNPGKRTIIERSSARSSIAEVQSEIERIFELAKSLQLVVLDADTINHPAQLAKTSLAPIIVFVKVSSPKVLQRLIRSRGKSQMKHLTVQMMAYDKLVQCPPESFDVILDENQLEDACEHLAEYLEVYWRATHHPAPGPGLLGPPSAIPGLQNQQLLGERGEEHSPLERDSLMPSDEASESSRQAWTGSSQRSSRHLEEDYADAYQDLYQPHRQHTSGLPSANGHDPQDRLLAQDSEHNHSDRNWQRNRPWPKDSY
# T1 sequence (P54289 25-956 partner limits assumed): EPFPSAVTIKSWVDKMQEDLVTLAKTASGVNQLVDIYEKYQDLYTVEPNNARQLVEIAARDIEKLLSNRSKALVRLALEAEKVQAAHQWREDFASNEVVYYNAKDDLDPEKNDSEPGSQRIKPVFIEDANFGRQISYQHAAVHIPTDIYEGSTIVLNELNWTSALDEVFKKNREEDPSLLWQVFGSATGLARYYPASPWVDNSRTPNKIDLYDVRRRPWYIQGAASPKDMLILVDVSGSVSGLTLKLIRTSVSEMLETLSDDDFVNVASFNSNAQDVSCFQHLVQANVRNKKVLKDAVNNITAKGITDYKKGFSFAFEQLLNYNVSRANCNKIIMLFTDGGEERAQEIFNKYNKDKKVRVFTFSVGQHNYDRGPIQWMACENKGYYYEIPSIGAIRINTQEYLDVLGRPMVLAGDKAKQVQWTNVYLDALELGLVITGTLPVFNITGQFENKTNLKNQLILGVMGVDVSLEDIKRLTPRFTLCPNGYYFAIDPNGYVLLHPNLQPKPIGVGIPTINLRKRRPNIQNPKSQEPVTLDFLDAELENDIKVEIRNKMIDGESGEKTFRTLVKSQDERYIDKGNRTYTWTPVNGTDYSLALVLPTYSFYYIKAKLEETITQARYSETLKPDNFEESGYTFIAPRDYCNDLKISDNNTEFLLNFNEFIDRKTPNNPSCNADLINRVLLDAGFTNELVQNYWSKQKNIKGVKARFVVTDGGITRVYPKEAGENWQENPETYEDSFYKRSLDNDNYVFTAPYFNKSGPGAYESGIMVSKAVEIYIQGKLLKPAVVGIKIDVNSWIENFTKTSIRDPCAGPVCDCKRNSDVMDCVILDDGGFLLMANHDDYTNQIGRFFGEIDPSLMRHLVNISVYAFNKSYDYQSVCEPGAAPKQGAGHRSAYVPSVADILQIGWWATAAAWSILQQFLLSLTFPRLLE
# T1 sequence (P54289 957-1103 partner limits assumed): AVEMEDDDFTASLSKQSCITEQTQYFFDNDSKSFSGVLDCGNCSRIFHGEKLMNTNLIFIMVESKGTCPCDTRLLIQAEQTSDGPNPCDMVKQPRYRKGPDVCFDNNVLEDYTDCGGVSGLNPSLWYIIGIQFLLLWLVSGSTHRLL
# [2] = molecular target: T1, human Cav2.2 channels; settings: HEK293 cells stably expressing human Cav2.2; n = 4–7; personal communication ref 40; read-out: IC50, block of calcium currents; cited from earlier work
# [3] = parameters: method as in earlier work; settings: primary endpoint; cited from earlier work
# [4] = test system: N-type channel; settings: cited from earlier work
# [5] = SH-SY5Y cells, 90 mM KCl and 5 mM CaCl2, 10 µM nifedipine, 5 min pre-treatment
# [6] = SH-SY5Y cells, 90 mM KCl and 5 mM CaCl2, 10 µM nifedipine, 5 min pre-treatment, read-out: IC50
Compound,"logIC50 [1, 5]","IC50 [1, 6] [µM]",extent of inhibition of KCl-induced Ca2+ responses ([1]; SH-SY5Y cells),inhibition at 300 µM [1] [%],further results
"NCCCOc1ccc(C(=O)Nc2ccccc2Oc2ccc(F)cc2)cc1 [5a, 4-(3-Aminopropoxy)-N-(2-(4-fluorophenoxy)phenyl)benzamide]",–4.34,46,fully blocked,,
"NCCCOc1ccc(C(=O)Nc2cccc(Oc3ccc(F)cc3)c2)cc1 [5b, 4-(3-Aminopropoxy)-N-(3-(4-fluorophenoxy)phenyl)benzamide]",–4.45,35,fully blocked,,
"NCCCOc1ccc(C(=O)Nc2ccc(Oc3ccc(F)cc3)cc2)cc1 [5c, 4-(3-Aminopropoxy)-N-(4-(4-fluorophenoxy)phenyl)benzamide]",~–3.12,764,partially inhibited responses,30,
"Cl.N=C(N)NCCCOc1ccc(C(=O)Nc2ccccc2Oc2ccc(F)cc2)cc1 [6a, N-(2-(4-Fluorophenoxy)phenyl)-4-(3-guanidinopropoxy)benzamide hydrochloride]",–3.90,,,65,IC50 [2]: 36.3 ± 2.4 µM
"Cl.N=C(N)NCCCOc1ccc(C(=O)Nc2cccc(Oc3ccc(F)cc3)c2)cc1 [6b, N-(3-(4-Fluorophenoxy)phenyl)-4-(3-guanidinopropoxy)benzamide hydrochloride]",–3.73,185,,,
"Cl.N=C(N)NCCCOc1ccc(C(=O)Nc2ccc(Oc3ccc(F)cc3)cc2)cc1 [6c, N-(4-(4-Fluorophenoxy)phenyl)-4-(3-guanidinopropoxy)benzamide hydrochloride]",–3.14,723,partially inhibited responses,19,
O=C(CC(c1ccccc1)c1ccccc1)N1CCN(C(c2ccccc2)c2ccccc2)CC1 [Z160],,,,,outcome of Phase II clinical studies [3]: failed to meet the primary endpoint
"N=C(N)NCCCCCCCC(=O)Nc1ccc(OCCCNC(=N)N)cc1C(=O)Nc1ccc(Oc2ccc(F)cc2)cc1 [compound 3, reference compound]",,,,15,extent of inhibition of Ca2+ responses at 1 mM [1]: only partially inhibited responses; logIC50 [1]: ~–2.84; IC50 ([1]; IC50): ~1450 µM and 1450 µM; activity in radioligand-displacement assay (in words) [4]: most potent fluorinated analogue
NCCCCCCCC(=O)Nc1ccc(OCCCN)cc1C(=O)Nc1ccc(Oc2ccc(F)cc2)cc1 [compound 4],,,,,activity in radioligand-displacement assay (in words) [4]: comparatively weak activity
